In ChEMBL document CHEMBL4706512, “Design, synthesis and antitumor activity of novel thiophene-pyrimidine derivatives as EGFR inhibitors overcoming T790M and L858R/T790M mutations” (Eur J Med Chem, 2020):

Tests used:
A-431 [1] = test: Antiproliferative activity against human A-431 cells assessed as inhibition of cell proliferation measured after 72 hrs by MTT assay; type: functional, cell-based; details: A-431, 72 h
A549 = test: Antiproliferative activity against human A549 cells assessed as inhibition of cell proliferation measured after 72 hrs by MTT assay; type: functional, cell-based; details: A549, 72 h
HeLa = test: Antiproliferative activity against human HeLa cells assessed as inhibition of cell proliferation measured after 72 hrs by MTT assay; type: functional, cell-based
L02 = test: Cytotoxicity against human L02 cells assessed as inhibition of cell proliferation measured after 72 hrs by MTT assay; type: cell-based; details: L02, 72 h
MCF7 = test: Antiproliferative activity against human MCF7 cells assessed as inhibition of cell proliferation measured after 72 hrs by MTT assay; type: functional, cell-based; details: MCF7, 72 h
NCI-H1975 [2] = test: Antiproliferative activity against human NCI-H1975 cells harboring EGFR T790M/L858R double mutant assessed as inhibition of cell viability measured after 72 hrs by MTT assay; type: functional, cell-based; details: NCI-H1975, 72 h
NCI-H1975 [3] = test: Antiproliferative activity against human NCI-H1975 cells harboring EGFR T790M/L858R double mutant assessed as inhibition of cell viability at 1 uM measured after 72 hrs by MTT assay; type: functional
NCI-H1975 [4] = test: Antiproliferative activity against human NCI-H1975 cells harboring EGFR T790M/L858R double mutant assessed as inhibition of cell viability at 10 uM measured after 72 hrs by MTT assay; type: functional
A-431 [5] = test: Induction of apoptosis in human A-431 cells assessed as necrotic cells at 5 uM measured after 48 hrs by Annexin V-FITC staining based flow cytometry (reference value: 0.21%); type: functional
[6] = Inhibition of EGFR T790M mutant (unknown origin) using FAM-labelled peptide as substrate incubated for 10 mins in presence of ATP measured by mobility shift assay; set-up: species or system Homo sapiens
A-431 [7] = test: Induction of apoptosis in human A-431 cells assessed as viable cells at 5 uM measured after 48 hrs by Annexin V-FITC staining based flow cytometry (reference value: 95.67%); type: functional; details: read-out: Activity
Homo sapiens [8] = species on record: Homo sapiens; test: Inhibition of EGFR T790M mutant (unknown origin) using FAM-labelled peptide as substrate at 1 uM incubated for 10 mins in presence of ATP measured by mobility shift assay
A-431 [9] = test: Induction of apoptosis in human A-431 cells assessed as early apoptotic cells at 5 uM measured after 48 hrs by Annexin V-FITC staining based flow cytometry (reference value: 2.1%); type: functional
A-431 [10] = test: Induction of apoptosis in human A-431 cells assessed as late apoptotic cells at 5 uM measured after 48 hrs by Annexin V-FITC staining based flow cytometry (reference value: 2.02%); type: functional
[11] = Inhibition of EGFR T790M/L858R double mutant (unknown origin) using FAM-labelled peptide as substrate incubated for 10 mins in presence of ATP measured by mobility shift assay; set-up: species or system Homo sapiens
[12] = target: T1, Epidermal growth factor receptor (Homo sapiens, UniProt P00533); test: Inhibition of wild type EGFR (unknown origin) using FAM-labelled peptide as substrate incubated for 10 mins in presence of ATP measured by mobility shift assay
[13] = target: T1, Epidermal growth factor receptor; test: Inhibition of wild type EGFR (unknown origin) using FAM-labelled peptide as substrate at 1 uM incubated for 10 mins in presence of ATP measured by mobility shift assay
[14] = target: Serine/threonine-protein kinase mTOR (Homo sapiens) (UniProt P42345); test: Inhibition of mTOR (unknown origin) using FAM-labelled peptide as substrate at 1 uM incubated for 10 mins in presence of ATP measured by mobility shift assay
Homo sapiens [15] = species on record: Homo sapiens; test: Inhibition of EGFR T790M/L858R double mutant (unknown origin) using FAM-labelled peptide as substrate at 1 uM incubated for 10 mins in presence of ATP measured by mobility shift assay
Homo sapiens [16] = species on record: Homo sapiens; test: Selectivity ratio of IC50 for wild type EGFR (unknown origin) to IC50 for EGFR T790M mutant (unknown origin) measured by mobility shift assay
Homo sapiens [17] = species on record: Homo sapiens; test: Inhibition of PI3K (unknown origin) using FAM-labelled peptide as substrate at 1 uM incubated for 10 mins in presence of ATP measured by mobility shift assay
Homo sapiens [18] = species on record: Homo sapiens; test: Selectivity ratio of IC50 for wild type EGFR (unknown origin) to IC50 for EGFR T790M/L858R double mutant (unknown origin) measured by mobility shift assay
[19] = target: Hepatocyte growth factor receptor (Homo sapiens) (UniProt P08581); test: Inhibition of c-MET (unknown origin) using FAM-labelled peptide as substrate at 1 uM incubated for 10 mins in presence of ATP measured by mobility shift assay
[20] = target: Vascular endothelial growth factor receptor 2 (Homo sapiens) (UniProt P35968); test: Inhibition of KDR (unknown origin) using FAM-labelled peptide as substrate at 1 uM incubated for 10 mins in presence of ATP measured by mobility shift assay
Vascular endothelial growth factor receptor 2 (Homo sapiens), sequence (P35968 whole entry): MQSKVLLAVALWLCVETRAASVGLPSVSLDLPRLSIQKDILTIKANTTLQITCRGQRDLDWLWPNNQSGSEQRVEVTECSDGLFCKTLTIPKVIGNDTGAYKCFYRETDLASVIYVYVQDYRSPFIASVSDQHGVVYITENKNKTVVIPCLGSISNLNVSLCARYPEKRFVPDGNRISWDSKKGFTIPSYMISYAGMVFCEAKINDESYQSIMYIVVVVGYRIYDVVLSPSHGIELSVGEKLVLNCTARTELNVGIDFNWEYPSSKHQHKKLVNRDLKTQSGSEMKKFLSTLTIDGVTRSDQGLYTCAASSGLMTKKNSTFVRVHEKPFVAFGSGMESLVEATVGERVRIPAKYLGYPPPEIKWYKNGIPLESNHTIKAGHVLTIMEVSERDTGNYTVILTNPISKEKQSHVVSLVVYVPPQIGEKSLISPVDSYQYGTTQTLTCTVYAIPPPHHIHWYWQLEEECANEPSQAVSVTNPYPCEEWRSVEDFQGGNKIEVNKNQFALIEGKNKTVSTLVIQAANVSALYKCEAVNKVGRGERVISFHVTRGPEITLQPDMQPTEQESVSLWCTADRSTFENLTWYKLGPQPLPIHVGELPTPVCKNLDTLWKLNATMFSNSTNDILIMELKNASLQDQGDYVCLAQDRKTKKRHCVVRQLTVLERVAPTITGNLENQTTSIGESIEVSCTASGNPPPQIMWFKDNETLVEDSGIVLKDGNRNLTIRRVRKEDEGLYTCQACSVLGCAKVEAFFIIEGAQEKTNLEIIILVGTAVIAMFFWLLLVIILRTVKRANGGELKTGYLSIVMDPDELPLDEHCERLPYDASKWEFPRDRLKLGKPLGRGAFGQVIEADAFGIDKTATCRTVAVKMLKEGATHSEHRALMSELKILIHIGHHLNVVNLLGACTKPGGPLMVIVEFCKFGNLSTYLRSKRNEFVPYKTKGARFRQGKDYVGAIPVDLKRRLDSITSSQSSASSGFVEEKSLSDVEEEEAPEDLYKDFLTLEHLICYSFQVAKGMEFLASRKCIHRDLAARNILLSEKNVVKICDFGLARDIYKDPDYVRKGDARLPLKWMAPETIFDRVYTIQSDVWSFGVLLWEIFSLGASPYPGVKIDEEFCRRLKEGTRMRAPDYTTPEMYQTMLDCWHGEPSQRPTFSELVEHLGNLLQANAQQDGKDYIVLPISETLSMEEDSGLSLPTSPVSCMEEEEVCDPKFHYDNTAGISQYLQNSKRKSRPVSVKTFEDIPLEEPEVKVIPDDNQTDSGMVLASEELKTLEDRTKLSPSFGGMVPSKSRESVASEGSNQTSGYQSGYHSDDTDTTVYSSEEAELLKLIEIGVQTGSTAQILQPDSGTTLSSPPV

T1 sequence (P00533 whole entry): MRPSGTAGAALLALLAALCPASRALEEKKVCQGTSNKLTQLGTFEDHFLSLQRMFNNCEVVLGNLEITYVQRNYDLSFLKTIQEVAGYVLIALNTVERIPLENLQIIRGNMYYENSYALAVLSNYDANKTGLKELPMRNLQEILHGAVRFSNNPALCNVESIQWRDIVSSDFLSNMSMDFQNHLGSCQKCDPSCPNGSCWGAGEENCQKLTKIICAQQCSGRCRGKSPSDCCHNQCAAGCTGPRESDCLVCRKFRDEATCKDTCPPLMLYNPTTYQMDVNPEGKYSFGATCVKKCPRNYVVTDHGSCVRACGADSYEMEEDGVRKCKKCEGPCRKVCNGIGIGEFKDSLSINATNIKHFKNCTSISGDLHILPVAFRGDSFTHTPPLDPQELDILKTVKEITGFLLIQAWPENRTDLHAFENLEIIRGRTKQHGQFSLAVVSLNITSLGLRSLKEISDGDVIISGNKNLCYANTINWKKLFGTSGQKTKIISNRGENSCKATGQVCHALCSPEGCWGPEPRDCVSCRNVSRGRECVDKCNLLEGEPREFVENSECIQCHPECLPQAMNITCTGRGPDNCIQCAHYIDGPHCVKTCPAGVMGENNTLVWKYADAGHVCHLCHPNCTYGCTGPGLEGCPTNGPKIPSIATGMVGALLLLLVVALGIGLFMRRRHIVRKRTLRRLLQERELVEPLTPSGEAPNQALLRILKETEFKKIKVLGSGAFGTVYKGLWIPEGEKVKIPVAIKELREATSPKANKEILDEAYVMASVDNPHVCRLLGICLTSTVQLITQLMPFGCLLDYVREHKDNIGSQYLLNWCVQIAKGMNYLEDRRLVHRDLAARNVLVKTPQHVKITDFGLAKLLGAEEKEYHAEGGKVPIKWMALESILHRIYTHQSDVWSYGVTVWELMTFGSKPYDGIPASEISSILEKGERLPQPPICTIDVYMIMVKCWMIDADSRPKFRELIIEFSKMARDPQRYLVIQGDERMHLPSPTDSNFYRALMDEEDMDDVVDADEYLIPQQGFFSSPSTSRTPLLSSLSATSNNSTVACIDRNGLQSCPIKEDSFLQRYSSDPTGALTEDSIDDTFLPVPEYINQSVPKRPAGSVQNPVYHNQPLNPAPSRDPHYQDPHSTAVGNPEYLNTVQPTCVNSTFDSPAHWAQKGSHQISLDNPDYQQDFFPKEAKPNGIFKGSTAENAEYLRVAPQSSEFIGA
Hepatocyte growth factor receptor (Homo sapiens), sequence (P08581 whole entry): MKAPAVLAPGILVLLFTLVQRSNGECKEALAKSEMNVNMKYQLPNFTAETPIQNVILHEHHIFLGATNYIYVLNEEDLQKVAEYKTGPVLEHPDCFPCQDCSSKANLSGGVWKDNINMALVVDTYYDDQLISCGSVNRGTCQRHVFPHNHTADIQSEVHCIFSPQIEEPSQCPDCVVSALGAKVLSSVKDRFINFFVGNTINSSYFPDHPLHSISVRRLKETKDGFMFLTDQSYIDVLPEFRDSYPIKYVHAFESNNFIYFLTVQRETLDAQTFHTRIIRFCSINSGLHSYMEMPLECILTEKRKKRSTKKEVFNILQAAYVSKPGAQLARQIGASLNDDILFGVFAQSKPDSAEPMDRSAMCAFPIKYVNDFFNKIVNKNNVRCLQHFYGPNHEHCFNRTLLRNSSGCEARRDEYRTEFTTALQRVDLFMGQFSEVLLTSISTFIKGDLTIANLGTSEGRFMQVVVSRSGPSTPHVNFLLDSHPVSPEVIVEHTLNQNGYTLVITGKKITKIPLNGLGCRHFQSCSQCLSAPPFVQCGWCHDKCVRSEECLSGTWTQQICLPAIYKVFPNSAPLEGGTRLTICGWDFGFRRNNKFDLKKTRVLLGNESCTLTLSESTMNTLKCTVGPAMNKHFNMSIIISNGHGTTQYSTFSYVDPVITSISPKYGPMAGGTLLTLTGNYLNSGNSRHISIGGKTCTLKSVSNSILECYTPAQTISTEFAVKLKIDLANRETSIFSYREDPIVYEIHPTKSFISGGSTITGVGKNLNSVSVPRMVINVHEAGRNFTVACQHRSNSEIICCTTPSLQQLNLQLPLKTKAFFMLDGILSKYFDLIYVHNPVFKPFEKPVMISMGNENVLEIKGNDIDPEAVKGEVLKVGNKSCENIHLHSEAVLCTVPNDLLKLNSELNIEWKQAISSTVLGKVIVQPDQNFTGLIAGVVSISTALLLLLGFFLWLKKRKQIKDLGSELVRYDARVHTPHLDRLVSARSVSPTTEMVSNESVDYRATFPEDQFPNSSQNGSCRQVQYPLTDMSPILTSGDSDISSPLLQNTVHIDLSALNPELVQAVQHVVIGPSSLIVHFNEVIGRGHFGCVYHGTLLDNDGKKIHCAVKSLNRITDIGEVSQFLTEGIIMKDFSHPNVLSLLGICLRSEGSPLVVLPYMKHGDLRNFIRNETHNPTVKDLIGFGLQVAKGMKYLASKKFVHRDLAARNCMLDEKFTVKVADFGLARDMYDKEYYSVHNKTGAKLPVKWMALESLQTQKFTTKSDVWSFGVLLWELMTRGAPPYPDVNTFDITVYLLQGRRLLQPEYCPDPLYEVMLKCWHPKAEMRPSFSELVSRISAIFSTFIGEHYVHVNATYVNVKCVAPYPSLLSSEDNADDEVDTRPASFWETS

Row | Structure (SMILES) | IC50 (A-431 [1]) [µM] | IC50 (A549) [µM] | IC50 (HeLa) [µM] | IC50 (L02) [µM] | IC50 (MCF7) [µM] | other results
1 | CCC/C=C/C(=O)Nc1cccc(Oc2nc(Nc3ccc(OC)nc3)nc3ccsc23)c1 | 30.3 | 21.5 | > 50 | 41.6 | > 50 | –
2 | C/C=C/C(=O)Nc1cccc(Oc2nc(Nc3cccc(C#N)c3)nc3ccsc23)c1 | 20.1 | 11.3 | 23.6 | 47.9 | 33.1 | –
3 | C=CC(=O)Nc1cccc(Oc2nc(Nc3ccc(OC)cc3)nc3ccsc23)c1 | 9.3 | 8.61 | 26.1 | > 50 | 16 | IC50 (NCI-H1975 [2]): 0.207 µM; inhibition at 1 µM (NCI-H1975 [3]): 59.1%; inhibition at 10 µM (NCI-H1975 [4]): 83.8%
4 | C=CC(=O)Nc1cccc(Oc2nc(Nc3ccn(C)n3)nc3ccsc23)c1 | 13.9 | 26.5 | 17.3 | – | 37.6 | –
5 | COc1ccc(Nc2nc(Oc3cccc(NC(=O)C=C(C)C)c3)c3sccc3n2)cc1 | 17.6 | 18.1 | 28.8 | 48.9 | 46.1 | –
6 | COc1cccc(Nc2nc(Oc3cccc(NC(=O)/C=C/C(C)C)c3)c3sccc3n2)c1 | 23.4 | 37.1 | 27 | – | 43.9 | –
7 | C=CC(=O)Nc1cccc(Oc2nc(Nc3ccc(N4CCN(C)CC4)cc3)nc3ccsc23)c1 [OLMUTINIB] | 5.29 | 4.29 | 9.27 | 25.5 | 6.9 | Activity (A-431 [5]): 1.37%; IC50 [6]: 0.048 µM; IC50 (NCI-H1975 [2]): 0.52 µM; viability at 5 µM (A-431 [7]): 78.7%; inhibition (Homo sapiens [8]): 98.1%; Activity (A-431 [9]): 5.17%; inhibition at 1 µM (NCI-H1975 [3]): 6.08%; Activity (A-431 [10]): 14.78%; inhibition at 10 µM (NCI-H1975 [4]): 74.6%; IC50 [11]: 0.0127 µM
8 | COc1cccc(Nc2nc(Oc3cccc(NC(=O)C=C(C)C)c3)c3sccc3n2)c1 | 25.8 | 27.7 | 26.1 | – | 35.8 | –
9 | CCC/C=C/C(=O)Nc1cccc(Oc2nc(Nc3cccc(OC)c3)nc3ccsc23)c1 | 8.09 | 5.56 | 7.73 | > 50 | 5.02 | IC50 [6]: > 1 µM; inhibition (Homo sapiens [8]): 24.5%; inhibition at 1 µM (NCI-H1975 [3]): -0.18%; IC50 [12]: > 1 µM; inhibition [13]: 4%; inhibition at 10 µM (NCI-H1975 [4]): 14.6%
10 | CC(C)/C=C/C(=O)Nc1cccc(Oc2nc(Nc3ccn(C)n3)nc3ccsc23)c1 | 46.1 | 29.9 | 48.8 | – | > 50 | –
11 | CC(C)=CC(=O)Nc1cccc(Oc2nc(Nc3ccn(C)n3)nc3ccsc23)c1 | 38.9 | 31.9 | 39.6 | – | 43.9 | –
12 | CC/C=C/C(=O)Nc1cccc(Oc2nc(Nc3cccc(OC)c3)nc3ccsc23)c1 | 29.2 | 19.6 | 29.4 | > 50 | 43.4 | –
13 | C=CC(=O)Nc1cccc(Oc2nc(Nc3ccc(OC)nc3)nc3ccsc23)c1 | 27.8 | 20.4 | 47.1 | > 50 | > 50 | –
14 | CC/C=C/C(=O)Nc1cccc(Oc2nc(Nc3ccc(OC)cc3)nc3ccsc23)c1 | 15.1 | 16.1 | 36.1 | > 50 | > 50 | –
15 | C=CC(=O)Nc1cc(Nc2nccc(-c3cn(C)c4ccccc34)n2)c(OC)cc1N(C)CCN(C)C [OSIMERTINIB] | […] | 0.67 | 1.83 | > 50 | 3.67 | –
16 | C/C=C/C(=O)Nc1cccc(Oc2nc(Nc3ccn(C)n3)nc3ccsc23)c1 | 33.3 | 29.5 | 43.5 | – | > 50 | –
17 | CC/C=C/C(=O)Nc1cccc(Oc2nc(Nc3ccn(C)n3)nc3ccsc23)c1 | 36.2 | 25.6 | 49.4 | – | > 50 | –

Row | Structure (SMILES) | IC50 (A-431 [1]) [µM] | IC50 (A549) [µM] | IC50 (HeLa) [µM] | IC50 (L02) [µM] | IC50 (MCF7) [µM] | other results
18 | CCC/C=C/C(=O)Nc1cccc(Oc2nc(Nc3ccc(OC)cc3)nc3ccsc23)c1 | 4.22 | 5.21 | 31.4 | > 50 | 35 | IC50 [6]: > 1 µM; IC50 (NCI-H1975 [2]): 2.14 µM; inhibition (Homo sapiens [8]): 21.7%; inhibition at 1 µM (NCI-H1975 [3]): 3.25%; IC50 [12]: > 1 µM; inhibition [13]: 7.4%; inhibition at 10 µM (NCI-H1975 [4]): 94.3%
19 | C=C(F)C(=O)Nc1cccc(Oc2nc(Nc3ccn(C)n3)nc3ccsc23)c1 | > 50 | > 50 | > 50 | – | > 50 | –
20 | C/C=C/C(=O)Nc1cccc(Oc2nc(Nc3ccc(OC)nc3)nc3ccsc23)c1 | 37.2 | 31.9 | > 50 | > 50 | > 50 | –
21 | COc1ccc(Nc2nc(Oc3cccc(NC(=O)C=C(C)C)c3)c3sccc3n2)cn1 | > 50 | 40.1 | > 100 | 36.9 | > 100 | –
22 | C=C(C)C(=O)Nc1cccc(Oc2nc(Nc3ccn(C)n3)nc3ccsc23)c1 | > 50 | > 50 | > 50 | – | > 50 | –
23 | C/C=C/C(=O)Nc1cccc(Oc2nc(Nc3ccc(OC)cc3)nc3ccsc23)c1 | 11.8 | 13.7 | 45.1 | > 50 | > 50 | –
24 | COc1ccc(Nc2nc(Oc3cccc(NC(=O)/C=C/C(C)C)c3)c3sccc3n2)cn1 | > 50 | > 50 | > 50 | – | > 50 | –
25 | CC(C)=CC(=O)Nc1cccc(Oc2nc(Nc3cccc(C#N)c3)nc3ccsc23)c1 | 28.3 | 16.9 | 19.8 | > 50 | 41.1 | –
26 | C=CC(=O)Nc1cccc(Oc2nc(Nc3cccc(OC)c3)nc3ccsc23)c1 | 4.79 | 4.34 | 16.4 | 30.3 | 19 | IC50 [6]: 0.0766 µM; IC50 (NCI-H1975 [2]): 0.418 µM; inhibition [14]: 9.7%; inhibition (Homo sapiens [15]): 104%; Selectivity ratio (Homo sapiens [16]): > 13; inhibition (Homo sapiens [8]): 94.8%; inhibition (Homo sapiens [17]): 31.6%; inhibition at 1 µM (NCI-H1975 [3]): 50.6%; Selectivity ratio (Homo sapiens [18]): > 65; inhibition [19]: 0.5%; inhibition [20]: -0.2%; IC50 [12]: > 1 µM; inhibition [13]: 24%; inhibition at 10 µM (NCI-H1975 [4]): 86.8%; IC50 [11]: 0.0153 µM
27 | CC(C)/C=C/C(=O)Nc1cccc(Oc2nc(Nc3cccc(C#N)c3)nc3ccsc23)c1 | 24.1 | 19 | 36.5 | > 50 | > 50 | –
28 | C/C=C/C(=O)Nc1cccc(Oc2nc(Nc3cccc(OC)c3)nc3ccsc23)c1 | 13.1 | 10.5 | 20.1 | 46 | 14.6 | –
29 | CCC/C=C/C(=O)Nc1cccc(Oc2nc(Nc3ccn(C)n3)nc3ccsc23)c1 | 23.4 | 26.3 | 32.2 | – | 39.1 | –
30 | CC/C=C/C(=O)Nc1cccc(Oc2nc(Nc3ccc(OC)nc3)nc3ccsc23)c1 | 26.2 | 25.8 | 49.9 | > 50 | > 50 | –
31 | COc1ccc(Nc2nc(Oc3cccc(NC(=O)/C=C/C(C)C)c3)c3sccc3n2)cc1 | 25.2 | 37.9 | 45.1 | – | > 50 | –
32 | CC/C=C/C(=O)Nc1cccc(Oc2nc(Nc3cccc(C#N)c3)nc3ccsc23)c1 | 36.2 | 14.9 | 69.4 | > 50 | > 50 | –
33 | CCC/C=C/C(=O)Nc1cccc(Oc2nc(Nc3cccc(C#N)c3)nc3ccsc23)c1 | 20.4 | 16.7 | 42.1 | > 50 | 49.1 | –
